Assay results as given in patent US8815829B2, “3′-azido purine nucleotide prodrugs for treatment of viral infections” (priority 2008, dated 2014).
Read-outs that look alike come from different tables or passages of the source.

Legend:
[1] = system: adenosine deaminase; assay: Adenosine deaminase assay (deamination of nucleosides); assay type: in vitro ADME
Procedure: In order to determine if these 6-substituted compounds are converted to G analogs by the enzyme adenosine deaminase, a series of enzyme kinetics experiments were undertaken.
To determine the propensity for deamination of the APN nucleosides by adenosine deaminase, nucleoside compounds were incubated with the commercially available purified enzyme, and the reaction was followed spectrophotometrically. Reaction conditions were 50 mM potassium phosphate, pH 7.4, with 50 μM APN nucleoside in 0.5 mL at 25° C. Reaction time was 7 minutes with 0.002 units of enzyme and 120 minutes with 0.2 units of enzyme. (The unit definition of adenosine deaminase is one unit will deaminate 1.0 μmol of adenosine to inosine per minute at pH 7.5 at 25° C.) Deoxyadenosine was the positive control which was 59% deaminated under the given conditions in 7 minutes with 0.002 units of enzyme. Deoxyguanosine was the negative control. Optical density was measured at 265 nm or 285 nm. The difference in optical density between the beginning and the end of the experiment was divided by the extinction coefficient then multiplied by the volume of the reaction to determine the number of mols of substrate transformed into product. Mols of product were divided by mols of substrate equivalent to a 100% complete reaction then multiplied by 100 to obtain percent deamination. The limit of detection was 0.001 optical density units.

[2] = system: HCV Replicon RNA; assay: HCV Replicon Assay (Huh 7 Clone B cells); assay type: cell-based; details: tested at 10 μM, five days
From the text: (§1) Agents Chemother. […] K., Otto, M. J., Schinazi, R. F. “Antiviral activities and cellular toxicities of modified 2′,3′-dideoxy-2′,3′-didehydrocytidine analogs” Antimicrob. Agents Chemother. 2002, 46, 3854-60. • ^cHSV-1 drug susceptibility assay was done as previously described in: Schinazi, R. F., Peters, J., Williams, C. C., Chance, D., Nahmias, A. J. “Effect of combinations of acyclovir with vidarabine or its 5′-monophosphate on herpes simplex virus in cell culture and in mice.” Antimicrob. Agents Chemother. 1982, 22, 499-507. • ^dHCV Replicon Assay^1: Huh 7 Clone B cells containing HCV Replicon RNA were seeded in a 96-well plate at 5000 cells/well, and the compounds were tested at 10 μM in triplicate immediately after seeding. Following five days incubation (37° C., 5% CO2), total cellular RNA was isolated by using versaGene RNA purification kit from Gentra. Replicon RNA and an internal control (TaqMan rRNA control reagents, Applied Biosystems) were amplified in a single step multiplex Real Time RT-PCR Assay. The antiviral effectiveness of the compounds was calculated by subtracting the threshold RT-PCR cycle of the test compound from the threshold RT-PCR cycle of the no-drug control (ΔCtHCV). A ΔCt of 3.3 equals a 1-log reduction (equal to 90% less starting material) in Replicon RNA levels. The cytotoxicity of the compounds was also calculated by using the ΔCt rRNA values. 77 (2′-Me-C) was used as the control. To determine EC90 and IC50 values^2, ΔCt: values were first converted into fraction of starting material^3 and then were used to calculate the % inhibition.

[3] = system: PBM cells; assay: Cytotoxicity assay in PBM cells; assay type: cell-based, human
[4] = system: CEM cells; assay: Cytotoxicity assay in CEM cells; assay type: cell-based, human
[5] = system: Vero cells; assay: Cytotoxicity assay in Vero cells; assay type: cell-based
[6] = system: HSV-1; assay: HSV-1 drug susceptibility assay; assay type: cell-based
From the text: as §1

[7] = system: HIV-1/LAI; assay: Anti-HIV-1 assay in PBM cells; assay type: cell-based
Procedure: Stock solutions (20-40 mM) of the compounds were prepared in sterile DMSO and then diluted to the desired concentration in growth medium. Cells were infected with the prototype HIV-1LAI at a multiplicity of infection of 0.01. Virus obtained from the cell supernatant was quantified on day 6 after infection by a reverse transcriptase assay using (rA)n·(dT)12-18 as template-primer. […] The antiviral EC50 and EC90 were obtained from the concentration-response curve using the median effective method described previously (see Chou T.-C. & Talalay P. Adv. Enzyme Regul. 1984, 22, 27-55; Belen'kii M. S. & Schinazi R. F. Antiviral Res. 1994, 25, 1-11).

[8] = system: HIV-2/pROD10; assay: HIV-2 drug susceptibility in PBM cells; assay type: cell-based; details: Human immunodeficiency virus 2, PBMC
[9] = system: HBV; assay: Anti-HBV assay (AD-38 cell line); assay type: cell-based; details: Hepatitis B virus
Procedure: The anti-HBV activity of the compounds was determined by treating the AD-38 cell line carrying wild type HBV under the control of tetracycline (see Ladner S. K., Otto M. J., Barker C. S., Zaifert K., Wang G. H., Guo J. T., Seeger C. & King R. W. Antimicrob. Agents Chemother. 1997, 41, 1715-20). Removal of tetracycline from the medium [Tet (−)] results in the production of HBV. The levels of HBV in the culture supernatant fluids from cells treated with the compounds were compared with that of the untreated controls. Control cultures with tetracycline [Tet (+)] were also maintained to determine the basal levels of HBV expression.

[10] = system: PBM cells; details: human, 4 h, 50 μM
[11] = 50 μM nucleoside, pH 7.4, 25° C., 0.002 units enzyme
[12] = 50 μM nucleoside, pH 7.4, 25° C., 0.2 units enzyme
[13] = Table 5, read-out: Toxicity IC50 Vero
[14] = Human immunodeficiency virus 1, PBMC, PBM cells, read-out: HIV-1/LAI (PBM) EC50
[15] = Human immunodeficiency virus 1, PBMC, PBM cells, read-out: HIV-1/LAI (PBM) EC90
[16] = Chlorocebus sabaeus, Vero, read-out: Vero IC50

Row | Structure (SMILES) | EC50 [7, 14] [µM] | EC90 [7, 15] [µM] | EC50 [8] [µM] | EC90 [8] [µM] | EC50 [9] [µM] | EC90 [9] [µM] | nucleotides detected (LC/MS) [10] | species not detected (LC/MS) [10] | also measured
1 | Nc1ncnc2c1ncn2[C@H]1C[C@H](O)[C@@H](CO)O1 [2Õ-deoxy- adenosine, Deoxyadenosine, reference compound] | – | – | – | – | – | – | – | – | Deamination in 7 min (0.002 units Adenosine Deaminase) [1, 11]: 59.30%; Deamination in 7 min (0.002 units Adenosine Deaminase) ([1]; 50 μM nucleoside, pH 7.4, 25° C., 0.002 units enzyme, listed as Deoxyadenosine): 59%; Deamination in 120 min (0.2 units Adenosine Deaminase) [1, 12]: 105.50%
2 | Nc1nc(O)c2ncn([C@H]3C[C@H](O)[C@@H](CO)O3)c2n1 [2Õ-deoxy- guanosine, Deoxyguanosine, reference compound] | – | – | – | – | – | – | – | – | Deamination in 7 min (0.002 units Adenosine Deaminase) [1, 11]: below level of detection; Deamination in 120 min (0.2 units Adenosine Deaminase) [1, 12]: below level of detection
3 | C[C@@]1(O)[C@H](O)[C@@H](CO)O[C@H]1n1ccc(N)nc1=O [2′-Me—C, reference compound] | – | – | – | – | – | – | – | – | EC50 [2]: 1.3 µM; EC90 [2]: 5.4 µM; IC50 ([3]; Table 5, read-out: Toxicity IC50 PBM): 29.4 µM; IC50 ([4]; Table 5, read-out: Toxicity IC50 CEM): 24.5 µM; IC50 [5, 13]: > 100 µM
4 | Nc1nc2c(ncn2COCCO)c(=O)[nH]1 [ACV, reference compound] | – | – | – | – | – | – | – | – | EC50 [6]: 0.16 µM; EC90 [6]: 0.42 µM; IC50 [5, 13]: > 100 µM
5 | C=CCNc1nc(N)nc2c1ncn2[C@H]1CC(N=[N+]=[N-])[C@@H](CO)O1 (stereo partly drawn) [Compound 62, 2-Amino-9-(3′-azido-2′,3′-dideoxy-β-D-erythro-pentofuranosyl)-6-allylamino-9H-purine] | 0.5 | 4.3 | 0.71 | 7.4 | > 10 | > 10 | detection of RFS-457-DP and RFS-457-TP | No RFS-427, RFS-427-MP, RFS-427-DP, or RFS-427-TP were detected | Deamination in 120 min (0.2 units Adenosine Deaminase) ([1]; 50 μM, pH 7.4): 7.60%
6 | C=CCN(C)c1nc(N)nc2c1ncn2[C@H]1CC(N=[N+]=[N-])[C@@H](CO)O1 (stereo partly drawn) [Compound 63, 2-Amino-9-(3′-azido-2′,3′-dideoxy-β-D-erythro-pentofuranosyl)-6-N-methylallylamino-9H-purine] | 0.4 | 1.5 | 2.4 | 6.1 | > 10 | > 10 | detection of RFS-457-TP | No RFS-464, RFS-464-MP, RFS-464-DP, or RFS-464-TP were detected | –
7 | [N-]=[N+]=NC1C[C@H](n2cnc3c(NCCCCCO)nc(N)nc32)O[C@@H]1CO (stereo partly drawn) [Compound 64, 2-Amino-9-(3′-azido-2′,3′-dideoxy-β-D-erythro-pentofuranosyl)-6-aminopentanol-9H-purine] | – | – | > 100 | > 100 | > 10 | > 10 | – | – | EC50 ([7]; Human immunodeficiency virus 1, PBMC, read-out: HIV-1/LAI (PBM) EC50, PBM cells): 86.5 µM; EC90 ([7]; Human immunodeficiency virus 1, PBMC, read-out: HIV-1/LAI (PBM) EC90, PBM cells): > 10 µM
8 | CC(C)(CO)Nc1nc(N)nc2c1ncn2[C@H]1CC(N=[N+]=[N-])[C@@H](CO)O1 (stereo partly drawn) [Compound 65, 2-Amino-9-(3′-azido-2′,3′-dideoxy-β-D-erythro-pentofuranosyl)-6-N-2-methyl-2-amino-propanol-9H-purine] | 52.5 | > 10 | > 100 | > 100 | > 10 | > 10 | – | – | –
9 | CC(CO)Nc1nc(N)nc2c1ncn2[C@H]1CC(N=[N+]=[N-])[C@@H](CO)O1 (stereo partly drawn) [Compound 67] | 59.9 | > 10 | 51.6 | > 100 | > 10 | > 10 | – | – | –
10 | CN(C)c1nc(N)nc2c1ncn2[C@H]1CC(N=[N+]=[N-])[C@@H](CO)O1 (stereo partly drawn) [Compound 69] | 0.21 | 1.05 | 2.5 | 5.9 | > 10 | > 10 | – | – | Conversion by / stability to adenosine deaminase [1]: stable to adenosine deaminase
11 | COc1nc(N)nc2c1ncn2[C@H]1CC(N=[N+]=[N-])[C@@H](CO)O1 (stereo partly drawn) [Compound 70] | – | – | – | – | – | – | detection of RFS-506-DP, RFS-457-DP, and RFS-457-TP | No RFS-506, RFS-506-MP, or RFS-506-TP were detected | Deamination in 7 min (0.002 units Adenosine Deaminase) ([1]; 50 μM, pH 7.4): 0.55 ± 5.8%; Deamination in 120 min (0.2 units Adenosine Deaminase) ([1]; 50 μM, pH 7.4): 130.22 ± 4.72%
12 | [N-]=[N+]=NC1C[C@H](n2cnc3c(NC4CC4)nc(N)nc32)O[C@@H]1CO (stereo partly drawn) [Compound 72] | 1.5 | 8.8 | 3.1 | 15.8 | > 10 | > 10 | detection of RFS-457-DP and RFS-457-TP | No RFS-512, RFS-512-MP, RFS-512-DP, or RFS-512-TP were detected | Deamination in 7 min (0.002 units Adenosine Deaminase) ([1]; 50 μM, pH 7.4): 0.56%; Deamination in 120 min (0.2 units Adenosine Deaminase) ([1]; 50 μM, pH 7.4): 33.40%
13 | [N-]=[N+]=NC1C[C@H](n2cnc3c(N)nc(N)nc32)O[C@@H]1CO (stereo partly drawn) [Compound 73, β-D-3′-azido-2,6-diamino-2′,3′-dideoxypurine] | – | – | – | – | – | – | detection of RFS-457, RFS-457-MP, RFS-457-DP, RFS-457-TP RFS-667-DP, and RFS-667-TP | No RFS-667 or RFS-667-MP were detected | major metabolite [10]: RFS-457-TP as the major metabolite
14 | COCCNc1nc(N)nc2c1ncn2[C@H]1CC(N=[N+]=[N-])[C@@H](CO)O1 (stereo partly drawn) [Compound 74] | 2.1 | 16.2 | – | – | – | – | – | – | –
15 | CCOC(=O)[C@H](C)NP(=O)(OC[C@H]1O[C@@H](n2cnc3c(N)nc(N)nc32)CC1N=[N+]=[N-])Oc1ccccc1 (stereo partly drawn) [RS-783] | – | – | – | – | – | – | – | – | EC50 ([7]; Tables 2-4, n = 3 for the MP prodrugs, read-out: HIV EC50): 0.0034 µM; EC90 ([7]; Tables 2-4, n = 3 for the MP prodrugs, read-out: HIV EC90): 0.035 µM; IC50 ([3]; Tables 2-4, read-out: PBM IC50): 9.6 µM; IC50 ([4]; Tables 2-4, read-out: CEM IC50): 12.1 µM; IC50 [5, 16]: > 100 µM
16 | CCOC(=O)[C@H](C)NP(=O)(OC[C@H]1O[C@@H](n2cnc3c(Cl)nc(N)nc32)CC1N=[N+]=[N-])Oc1ccccc1 (stereo partly drawn) [RS-784] | – | – | – | – | – | – | – | – | EC50 ([7]; Human immunodeficiency virus 1, PBMC, Tables 2-4, n = 3 for the MP prodrugs, read-out: HIV EC50): 0.035 µM; EC90 ([7]; Human immunodeficiency virus 1, PBMC, Tables 2-4, n = 3 for the MP prodrugs, read-out: HIV EC90): 0.1 µM; IC50 ([3]; Homo sapiens, PBMC, Tables 2-4, read-out: PBM IC50): 11.6 µM; IC50 ([4]; Homo sapiens, CCRF-CEM, Tables 2-4, read-out: CEM IC50): 13.5 µM; IC50 [5, 16]: > 100 µM
